The supplement of paper PMC10627819

Tests used:
Test in all cases: Bliss interaction score (quartile over a dose matrix) (fitness difference); higher = more antagonism (negative = synergy)
S. pneumoniae D39V = system: S. pneumoniae D39V
Outline: (§1)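 Fitness was OD595 at entry into stationary phase divided by the plate's robust no-drug mean and capped at 1; single-drug fitness was inferred from combination data. The Bliss score is observed minus expected (product) fitness, summarised by quartiles over technical, biological and donor/recipient replicates.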

S. aureus DSM 20231 = system: S. aureus DSM 20231
Outline: as §1

B. subtilis 168 = system: B. subtilis 168
Outline: as §1

S. aureus Newman = system: S. aureus Newman
Outline: as §1
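Note: first quartile when negative (synergy) and third quartile when positive (antagonism).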

| Compound | Bliss interaction score (S. pneumoniae D39V) | Bliss interaction score (S. aureus DSM 20231) | Bliss interaction score (B. subtilis 168) | Bliss interaction score (S. aureus Newman) | Bliss interaction score (S. pneumoniae D39V; main component drawn) | Bliss interaction score (S. aureus DSM 20231; main component drawn) | Bliss interaction score (B. subtilis 168; main component drawn) | Bliss interaction score (S. aureus Newman; main component drawn) |
| --- | --- | --- | --- | --- | --- | --- | --- | --- |
| CN[C@H](CC(C)C)C(=O)N[C@H]1C(=O)N[C@@H](CC(N)=O)C(=O)N[C@H]2C(=O)N[C@H]3C(=O)N[C@H](C(=O)N[C@H](C(=O)O)c4cc(O)cc(O)c4-c4cc3ccc4O)[C@H](O[C@H]3C[C@](C)(N)[C@@H](O)[C@H](C)O3)c3ccc(c(Cl)c3)Oc3cc2cc(c3O[C@@H]2O[C@H](CO)[C@@H](O)[C@H](O)[C@H]2O[C@H]2C[C@](C)(NCc3ccc(-c4ccc(Cl)cc4)cc3)[C@@H](O)[C@H](C)O2)Oc2ccc(cc2Cl)[C@H]1O [Oritavancin] + Cc1cc(NS(=O)(=O)c2ccc(N)cc2)no1 [Sulfamethoxazol] | -0.0491 | -0.0575 | -0.0377 | 0.0801 | – | – | – | – |
| CO[C@@H]1[C@@H](OC(N)=O)[C@@H](O)[C@H](Oc2ccc3c(O)c(NC(=O)c4ccc(O)c(CC=C(C)C)c4)c(=O)oc3c2C)OC1(C)C [Novobiocin] + CC1(C)S[C@@H]2[C@H](NC(=O)Cc3ccccc3)C(=O)N2[C@H]1C(=O)O [PenicillinG] | -0.0976 | -0.0356 | 0.0716 | -0.0408 | – | – | – | – |
| CN[C@H](CC(C)C)C(=O)N[C@H]1C(=O)N[C@@H](CC(N)=O)C(=O)N[C@H]2C(=O)N[C@H]3C(=O)N[C@H](C(=O)N[C@H](C(=O)O)c4cc(O)cc(O)c4-c4cc3ccc4O)[C@H](O[C@H]3C[C@](C)(N)[C@@H](O)[C@H](C)O3)c3ccc(c(Cl)c3)Oc3cc2cc(c3O[C@@H]2O[C@H](CO)[C@@H](O)[C@H](O)[C@H]2O[C@H]2C[C@](C)(NCc3ccc(-c4ccc(Cl)cc4)cc3)[C@@H](O)[C@H](C)O2)Oc2ccc(cc2Cl)[C@H]1O [Oritavancin] + CN(N=O)C(=O)N[C@@H](C=O)[C@@H](O)[C@H](O)[C@H](O)CO [Streptozotocin] | -0.0337 | -0.0564 | -0.0355 | -0.063 | – | – | – | – |
| CN[C@H](CC(C)C)C(=O)N[C@H]1C(=O)N[C@@H](CC(N)=O)C(=O)N[C@H]2C(=O)N[C@H]3C(=O)N[C@H](C(=O)N[C@H](C(=O)O)c4cc(O)cc(O)c4-c4cc3ccc4O)[C@H](O[C@H]3C[C@](C)(N)[C@@H](O)[C@H](C)O3)c3ccc(c(Cl)c3)Oc3cc2cc(c3O[C@@H]2O[C@H](CO)[C@@H](O)[C@H](O)[C@H]2O[C@H]2C[C@](C)(NCc3ccc(-c4ccc(Cl)cc4)cc3)[C@@H](O)[C@H](C)O2)Oc2ccc(cc2Cl)[C@H]1O [Oritavancin] + C[n+]1ccc(-c2cc[n+](C)cc2)cc1 [Paraquat] | -0.044 | -0.0738 | -0.0221 | -0.065 | – | – | – | – |
| CC[C@H]1OC(=O)[C@H](C)[C@@H](O[C@H]2C[C@@](C)(OC)[C@@H](O)[C@H](C)O2)[C@H](C)[C@@H](O[C@@H]2O[C@H](C)C[C@H](N(C)C)[C@H]2O)[C@](C)(O)C[C@@H](C)C(=O)[C@H](C)[C@@H](O)[C@]1(C)O [Erythromycin] + CC[C@H]1OC(=O)[C@H](C)C(=O)[C@H](C)[C@@H](O[C@@H]2O[C@H](C)C[C@H](N(C)C)[C@H]2O)[C@](C)(OC)C[C@@H](C)C(=O)[C@H](C)[C@H]2N(CCCCn3cnc(-c4cccnc4)c3)C(=O)O[C@]12C [Telithromycin] | 0.0262 | -0.0237 | -0.0361 | -0.0283 | – | – | – | – |
| CO[C@@]12[C@H](COC(N)=O)C3=C(C(=O)C(C)=C(N)C3=O)N1C[C@@H]1N[C@@H]12 [MitomycinC] + CN(N=O)C(=O)N[C@@H](C=O)[C@@H](O)[C@H](O)[C@H](O)CO [Streptozotocin] | -0.0613 | 0.0493 | -0.037 | 0.0483 | – | – | – | – |
| CO[C@H]1/C=C/O[C@@]2(C)Oc3c(C)c(O)c4c(O)c(c(/C=N/N5CCN(C)CC5)c(O)c4c3C2=O)NC(=O)/C(C)=C\C=C\[C@H](C)[C@H](O)[C@@H](C)[C@@H](O)[C@@H](C)[C@H](OC(C)=O)[C@@H]1C [Rifampicin] + COc1cc(Cc2cnc(N)nc2N)cc(OC)c1OC [Trimethoprim] | 0.0931 | -0.0578 | 0.131 | -0.0473 | – | – | – | – |
| CO[C@@]12[C@H](COC(N)=O)C3=C(C(=O)C(C)=C(N)C3=O)N1C[C@@H]1N[C@@H]12 [MitomycinC] + CCCCCCCCCC(=O)N[C@@H]1[C@H]([C@@H]([C@H](O[C@H]1OC2=C3C=C4C=C2OC5=C(C=C(C=C5)[C@H]([C@H]6C(=O)N[C@@H](C7=C(C(=CC(=C7)O)OC8[C@H]([C@H]([C@@H]([C@H](O8)CO)O)O)O)C9=C(C=CC(=C9)[C@H](C(=O)N6)NC(=O)[C@@H]4NC(=O)[C@@H]1C2=CC(=CC(=C2)OC2=C(C=CC(=C2)[C@H](C(=O)N[C@H](CC2=CC(=C(O3)C=C2)Cl)C(=O)N1)N)O)O)O)C(=O)O)O[C@H]1[C@@H]([C@H]([C@@H]([C@H](O1)CO)O)O)NC(=O)C)Cl)CO)O)O [Teicoplanin] | – | – | – | – | -0.0795 | -0.126 | -0.0487 | -0.228 |
